The supplement of paper PMC6045584
± gives the standard deviation of the averaged measurements.

Tests used:
[1] = compound: Cc1nc(Nc2n[nH]c3c2CN(C(=O)N[C@H](CN(C)C)c2ccccc2)C3(C)C)c2sccc2n1; assay: surviving fraction relative to DMSO-only wells; higher = less growth inhibition; conditions: exposure time: 5 days
Summary of the method: (§1)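 Log-phase tumour cell lines, 250–500 cells per well in 384-well plates, received inhibitors at 0.5, 1, 5, 10, 50, 100, 500 and 1000 nM continuously for five days, starting 24 hours after seeding. Viability was quantified with CellTiter-Glo luminescence and normalised to the median of DMSO-only wells to give surviving fraction. Three screens were run per line, and a line stayed in only with replicate Pearson r >0.7 and median Z' >0.3.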

PLX-4720 = compound: CCCS(=O)(=O)Nc1ccc(F)c(C(=O)c2c[nH]c3ncc(Cl)cc23)c1F [PLX-4720]; assay: as above; conditions: exposure time: 5 days
Summary of the method: as §1

Test System | surviving fraction ([1]; 0.5 nM) | surviving fraction ([1]; 1 nM) | surviving fraction ([1]; 5 nM) | surviving fraction ([1]; 10 nM) | surviving fraction ([1]; 50 nM) | surviving fraction ([1]; 100 nM) | surviving fraction ([1]; 500 nM) | surviving fraction ([1]; 1000 nM) | surviving fraction (PLX-4720; 0.5 nM) | surviving fraction (PLX-4720; 1 nM) | surviving fraction (PLX-4720; 5 nM) | surviving fraction (PLX-4720; 10 nM) | surviving fraction (PLX-4720; 50 nM) | surviving fraction (PLX-4720; 100 nM) | surviving fraction (PLX-4720; 500 nM) | surviving fraction (PLX-4720; 1000 nM)
22RV1 PROSTATE | 0.963 ± 0.14 | 0.783 ± 0.078 | 0.334 ± 0.035 | 0.321 ± 0.051 | 0.348 ± 0.018 | 0.313 ± 0.058 | 0.291 ± 0.058 | 0.27 ± 0.025 | 1 ± 0.011 | 0.966 ± 0.076 | 0.971 ± 0.032 | 0.958 ± 0.036 | 0.936 ± 0.04 | 0.929 ± 0.053 | 0.825 ± 0.095 | 0.872 ± 0.049
93VU HEADNECK | 1.01 ± 0.12 | 0.883 ± 0.045 | 0.39 ± 0.012 | 0.298 ± 0.044 | 0.24 ± 0.018 | 0.195 ± 0.0078 | 0.0973 ± 0.013 | 0.0723 ± 0.0095 | 0.755 ± 0.071 | 0.813 ± 0.082 | 0.798 ± 0.044 | 0.877 ± 0.024 | 1.08 ± 0.011 | 1.07 ± 0.081 | 0.998 ± 0.092 | 1.02 ± 0.054
143B BONE | 0.96 ± 0.021 | 0.969 ± 0.015 | 0.726 ± 0.032 | 0.494 ± 0.011 | 0.293 ± 0.033 | 0.259 ± 0.016 | 0.158 ± 0.0042 | 0.0825 ± 0.0035 | 0.979 ± 0.03 | 0.972 ± 0.023 | 0.99 ± 0.021 | 0.968 | 0.959 ± 0.061 | 0.986 ± 0.0071 | 0.855 ± 0.13 | 0.996 ± 0.028
A549 LUNG | 1.03 ± 0.051 | 0.952 ± 0.064 | 0.988 ± 0.064 | 0.578 ± 0.021 | 0.38 ± 0.033 | 0.311 ± 0.022 | 0.2537 ± 0.0015 | 0.208 ± 0.011 | 0.904 ± 0.027 | 0.928 ± 0.017 | 0.922 ± 0.017 | 0.922 ± 0.03 | 0.942 ± 0.012 | 0.98 ± 0.018 | 0.975 ± 0.027 | 1.02 ± 0.047
ASKA SYNOVIAL | 0.673 ± 0.043 | 1.09 ± 0.022 | 0.4283 ± 0.0031 | 1.16 ± 0.16 | 0.43 ± 0.027 | 1.28 ± 0.018 | 0.3113 ± 0.0015 | 1.08 ± 0.051 | 0.402 ± 0.04 | 0.905 ± 0.07 | 0.923 ± 0.041 | 1 ± 0.096 | 0.635 ± 0.032 | 1.21 ± 0.033 | 1.02 ± 0.077 | 1.08 ± 0.045
BT20 BREAST | 1.21 ± 0.12 | 1.11 ± 0.056 | 1.34 ± 0.025 | 1.28 ± 0.013 | 0.841 ± 0.11 | 0.631 ± 0.12 | 0.614 ± 0.076 | 0.542 ± 0.062 | 0.783 ± 0.2 | 0.849 ± 0.16 | 0.774 ± 0.065 | 0.803 ± 0.056 | 1.07 ± 0.1 | 1.03 ± 0.19 | 1.05 ± 0.087 | 1.12 ± 0.067
BT549 BREAST | 1.02 ± 0.065 | 0.928 ± 0.064 | 0.299 ± 0.035 | 0.232 ± 0.034 | 0.0943 ± 0.0086 | 0.092 ± 0.019 | 0.0593 ± 0.012 | 0.052 ± 0.02 | 0.855 ± 0.11 | 0.839 ± 0.092 | 0.857 ± 0.092 | 0.902 ± 0.074 | 1.09 ± 0.036 | 1.29 ± 0.061 | 1.19 ± 0.03 | 1.05 ± 0.15
CADOES1 SOFT TISSUE | 0.919 ± 0.029 | 0.865 ± 0.035 | 0.953 ± 0.11 | 0.957 ± 0.14 | 0.764 ± 0.047 | 0.721 ± 0.093 | 0.401 ± 0.014 | 0.291 ± 0.026 | 0.944 ± 0.025 | 0.935 ± 0.063 | 0.915 ± 0.051 | 0.933 ± 0.075 | 0.999 ± 0.14 | 0.869 ± 0.034 | 0.939 ± 0.075 | 1 ± 0.049
